Test results taken from patent US20140323721A1, “HETEROCYCLIC COMPOUNDS AND USES THEREOF” (INTELLIKINE, LLC, priority 2011, published 2014).

System: MDA-MB-361
Assay: MDA-MB-361 proliferation
Type: cell-based
Settings: Homo sapiens; in vitro IC50, MDA-MB-361 cells
Procedure: The ability of one or more subject compounds to inhibit tumor cell line proliferation is determined according to standard procedures known in the art. For instance, an in vitro cellular proliferation assay can be performed to measure the metabolic activity of live cells. The assay is performed in a 96 well microtiter plate using Alamar Blue reduction. Human tumor cell lines are obtained from ATCC (e.g., MCF7, U-87 MG, MDA-MB-468, PC-3), grown to confluency in T75 flasks, trypsinized with 0.25% trypsin, washed one time with Tumor Cell Media (DMEM+10% FBS), and plated in 90 ul at 5,000 cells/well in Tumor Cell Media. A compound disclosed herein is diluted in Tumor Cell Media and added in a 10 ul volume. Plates are incubated for 72 hours at 37 C and 5% CO2. A volume of 10 uL of Alamar Blue reagent is added to each well and plates are incubated for 3 hours at 37 C and 5% CO2. Alamar Blue fluoresce is read at 560 Ex/590 Em, and IC50 values are calculated using GraphPad Prism 5.
Cells comprising one or more mutations in PI3Kα, including but not limited to breast cancer cells (e.g., MDA-MB-361 and T47D), and cells comprising one or more mutations in PTEN including but not limited to prostate cancer cells (e.g., PC3), are typically grown in cell growth media such as DMEM supplemented with fetal bovine serum and/or antibiotics, and grown to confluency. Cells are then treated with various concentrations of test compound for about 2 hours and subsequently lysed in cell lysis buffer. Lysates are subjected to SDS-PAGE followed by Western blot analysis to detect downstream signaling markers, including but not limited to pAKT(S473), pAKT(T308), pS6, and p4E-BP1. Degree of proliferation (and proliferation inhibition) can also be measured for cells at various doses of compound of the present invention.

IC50 [µM]	Compound
< 1	CC1(C)CN(C2CN(c3cnc4ccc(-c5ccc6oc(N)nc6c5)nc4c3)C2)CCN1 [Compound 58]
< 10	C[C@H](N)C(=O)N1CCN(c2cnc3ccc(-c4ccc5oc(N)nc5c4)nc3c2)CC1 [Compound 38]
< 1	CC(C)(N)C(=O)N1CCN(c2cnc3ccc(-c4ccc5oc(N)nc5c4)nc3c2)CC1 [Compound 43, 2-amino-1-(4-(6-(2-aminobenzo[d]oxazol-5-yl)-1,5-naphthyridin-3-yl)piperazin-1-yl)-2-methylpropan-1-one]
< 1	Nc1nc2cc(-c3ccc4ncc(N5CCOCC5)nc4n3)ccc2o1 [Compound 2, 5-(3-morpholinopyrido[2,3-b]pyrazin-6-yl)benzo[d]oxazol-2-amine]
< 10	Nc1nc2cc(-c3ccc4ncc(N5CC(N6CCN(CC7CC7)CC6)C5)nc4n3)ccc2o1 [Compound 35]
< 10	Nc1nc2cc(-c3ccc4ncc(N5CCOCC5)cc4n3)ccc2o1 [Compound 22]
< 10	C[C@H]1CN(c2cnc3ccc(-c4ccc5oc(N)nc5c4)nc3c2)CCN1 [Compound 47]
< 10	C[C@@H](N)C(=O)N1CCN(c2cnc3ccc(-c4ccc5oc(N)nc5c4)nc3c2)CC1 [Compound 39]
< 10	CN1CCN(C2CN(c3cnc4ccc(-c5ccc6oc(N)nc6c5)nc4n3)C2)CC1 [Compound 71]
< 10	Nc1nc2cc(-c3ccc4ncc(N5CC(N6CCOCC6)C5)cc4n3)ccc2o1 [Compound 53]
< 10	CN1CCN(c2cnc3ccc(-c4ccc5oc(N)nc5c4)nc3c2)CC1 [Compound 24]
> 10	NCC(=O)N1CCN(c2cnc3ccc(-c4ccc5oc(N)nc5c4)nc3n2)CC1 [Compound 33]
< 10	C[C@H]1COCCN1C1CN(c2cnc3ccc(-c4ccc5oc(N)nc5c4)nc3c2)C1 [Compound 68]
< 1	Nc1nc2cc(-c3ccc4ncc(N5CCNC(=O)C5)nc4n3)ccc2o1 [Compound 29]
< 1	CN1CCN(C2CN(c3cnc4ccc(-c5ccc6oc(N)nc6c5)nc4c3)C2)CC1 [Compound 74]
> 10	Nc1nc2cc(-c3ccc4ncc(N5CC(N6CCNCC6)C5)nc4n3)ccc2o1 [Compound 34]
< 10	C[C@H]1CN(c2cnc3ccc(-c4ccc5oc(N)nc5c4)nc3n2)CCN1 [Compound 1]
< 10	C[C@@H]1CN(c2cnc3ccc(-c4ccc5oc(N)nc5c4)nc3c2)CCN1 [Compound 48]
< 1	CCN1CCN(C2CN(c3cnc4ccc(-c5ccc6oc(N)nc6c5)nc4c3)C2)CC1 [Compound 75]
< 1	Nc1nc2cc(-c3ccc4ncc(N5CC(N6CCN(CC7CC7)CC6)C5)cc4n3)ccc2o1 [Compound 60]

IC50 [µM]	Compound
< 1	C[C@@H]1CN(C2CN(c3cnc4ccc(-c5ccc6oc(N)nc6c5)nc4c3)C2)CCN1C [Compound 57]
< 10	Nc1nc2cc(-c3ccc4ncc(N5CC(N6CCN(CCO)CC6)C5)nc4n3)ccc2o1 [Compound 46]
< 1	Nc1nc2cc(-c3ccc4ncc(N5CCC(O)CC5)nc4n3)ccc2o1 [Compound 45]
< 10	CC(C)N1CCN(c2cnc3ccc(-c4ccc5oc(N)nc5c4)nc3c2)CC1 [Compound 44]
< 10	NCC(=O)N1CCN(c2cnc3ccc(-c4ccc5oc(N)nc5c4)nc3c2)CC1 [Compound 37]
< 10	CN1CC2CN(c3cnc4ccc(-c5ccc6oc(N)nc6c5)nc4n3)CC2C1 (stereo not drawn) [Compound 78]
< 1	C[C@H]1CN(C2CN(c3cnc4ccc(-c5ccc6oc(N)nc6c5)nc4c3)C2)CCN1 [Compound 54]
< 10	CC(C)(N)C(=O)N1CCN(c2cnc3ccc(-c4ccc5oc(N)nc5c4)nc3n2)CC1 [Compound 40]
> 10	Nc1nc2cc(-c3ccc4ncc(-c5cccnc5)cc4n3)ccc2o1 [Compound 16]
> 10	C[C@H]1COCCN1C1CN(c2cnc3ccc(-c4ccc5oc(N)nc5c4)nc3n2)C1 [Compound 61]
< 10	Nc1nc2cc(-c3ccc4ncc(N5CC(N6CCN(C7CC7)CC6)C5)nc4n3)ccc2o1 [Compound 69]
< 10	C[C@@H]1COCCN1C1CN(c2cnc3ccc(-c4ccc5oc(N)nc5c4)nc3c2)C1 [Compound 66]
< 1	C[C@@H]1CN(C2CN(c3cnc4ccc(-c5ccc6oc(N)nc6c5)nc4c3)C2)CCN1 [Compound 56]
< 10	C[C@H]1CN(C2CN(c3cnc4ccc(-c5ccc6oc(N)nc6c5)nc4n3)C2)CCN1C [Compound 21]
< 10	Cc1nccn1C1CN(c2cnc3ccc(-c4ccc5oc(N)nc5c4)nc3n2)C1 [Compound 50]
< 1	CCOC(=O)N1CCN(c2cnc3ccc(-c4ccc5oc(N)nc5c4)nc3n2)CC1 [Compound 6]
< 1	CN1CCN(C2CN(c3cnc4ccc(-c5ccc6oc(N)nc6c5)nc4c3)C2)CC1=O [Compound 64]
< 10	C[C@@H]1CN(C2CN(c3cnc4ccc(-c5ccc6oc(N)nc6c5)nc4n3)C2)CCN1 [Compound 12]
< 10	CC(C)N1CCN(c2cnc3ccc(-c4ccc5oc(N)nc5c4)nc3n2)CC1 [Compound 32]
< 10	CS(=O)(=O)N1CCN(C2CN(c3cnc4ccc(-c5ccc6oc(N)nc6c5)nc4n3)C2)CC1 [Compound 8]

IC50 [µM]	Compound
< 10	C[C@@H]1CN(C2CN(c3cnc4ccc(-c5ccc6oc(N)nc6c5)nc4n3)C2)CCN1C [Compound 25]
< 10	Cc1nccn1C1CN(c2cnc3ccc(-c4ccc5oc(N)nc5c4)nc3c2)C1 [Compound 63]
< 1	Nc1nc2cc(-c3ccc4ncc(N5CC(N6CCN(CCO)CC6)C5)cc4n3)ccc2o1 [Compound 65]
< 1	C[C@H]1CN(C2CN(c3cnc4ccc(-c5ccc6oc(N)nc6c5)nc4c3)C2)CCN1C [Compound 55]
< 1	CCOC(=O)N1CC=C(c2cnc3ccc(-c4ccc5oc(N)nc5c4)nc3n2)CC1 [Compound 9]
< 10	Nc1nc2cc(-c3ccc4ncc(N5CCC(F)(F)CC5)nc4n3)ccc2o1 [Compound 13]
< 1	C[C@@H]1COCCN1c1cnc2ccc(-c3ccc4oc(N)nc4c3)nc2n1 [Compound 14]
< 10	C[C@@H]1CN(c2cnc3ccc(-c4ccc5oc(N)nc5c4)nc3n2)CCN1 [Compound 27]
< 1	Nc1nc2cc(-c3ccc4ncc(N5CCN(C(=O)C6(N)CC6)CC5)cc4n3)ccc2o1 [Compound 42]
< 10	C[C@H]1CN(C2CN(c3cnc4ccc(-c5ccc6oc(N)nc6c5)nc4n3)C2)CCN1 [Compound 10]
< 10	Nc1nc2cc(-c3ccc4ncc(N5CC(N6CCOCC6)C5)nc4n3)ccc2o1 [Compound 5]
< 10	CN1CCN(c2cnc3ccc(-c4ccc5oc(N)nc5c4)nc3n2)CC1 [Compound 4]
< 10	C[C@@H](N)C(=O)N1CCN(c2cnc3ccc(-c4ccc5oc(N)nc5c4)nc3n2)CC1 [Compound 31]
< 10	Nc1nc2cc(-c3ccc4ncc(N5CCC(O)CC5)cc4n3)ccc2o1 [Compound 62]
< 1	CC1(C)CN(C2CN(c3cnc4ccc(-c5ccc6oc(N)nc6c5)nc4n3)C2)CCN1 [Compound 52]
< 1	CC(C)N1CCN(C2CN(c3cnc4ccc(-c5ccc6oc(N)nc6c5)nc4c3)C2)CC1 [Compound 72, 5-(7-(3-(4-isopropylpiperazin-1-yl)azetidin-1-yl)-1,5-naphthyridin-2-yl)benzo[d]oxazol-2-amine]
< 1	C[C@H]1COCCN1c1cnc2ccc(-c3ccc4oc(N)nc4c3)nc2n1 [Compound 15]
< 10	Nc1nc2cc(-c3ccc4ncc(N5CCN(C(=O)C6(N)CC6)CC5)nc4n3)ccc2o1 [Compound 41]
< 10	Nc1nc2cc(-c3ccc4ncc(N5CC(N6CCN(C7CC7)CC6)C5)cc4n3)ccc2o1 [Compound 70]
< 1	CCOC(=O)N1CCN(c2cnc3ccc(-c4ccc5oc(N)nc5c4)nc3c2)CC1 [Compound 36]
